Assays:
PMP22 = PMP22 protein expression by Western blotting in rat Schwann cells overexpressing human PMP22; type: cell-based
Method: Rat Schwann cells were inoculated at a concentration of about 10^5 cells/mL into each well of a 12-well plate including 2 mL of a Dulbecco's Modified Eagle's Medium (DMEM) containing 10% fetal bovine serum (FBS), 100 units/mL of penicillin, and 100 units/mL of streptomycin, and incubated in a 5%-CO2 incubator at about 37° C. to a cell density of about 60% to about 65%. […] Rat Schwann cells are often used in in vitro models for neuronal function and differentiation. The rat Schwann cells used herein were modified to consistently overexpress the human PMP22 gene by lentivital mediated integration of PMP22 into a chromosome and selective use of puromycin-resistant markers, thereby constructing a new rat Schwann PMP22 cell model. The rat Schwann cells (ATCC number; CRL-2768) were purchased from the American Type Culture Collection (ATCC).
After 2 mL of the culture medium was removed, the resulting rat Schwann cells were washed with phosphate buffered saline (PBS), followed by adding a lysis solution containing a 0.5% triton X-100 in PBS thereto, collecting the cells using a scraper, leaving the cells on ice for about 30 minutes, and then disrupting the cells. […]

[1] = system: myelin surrounding axons of the posterior lateral line nerves (PLLs); assay: Remyelination of peripheral nervous system (PLL myelin) in MTZ-demyelinated transformed zebrafish, GFP-fluorescence confocal microscopy; type: in vivo, Zebrafish (Danio rerio)
Method: Transformed Zebrafish (Danio rerio) in which genes respectively encoding an Mbp:EGFP fusion protein and a Claudink:EGFP fusion protein that are specifically expressed in myelin and emit fluorescence by using promoters of a myelin basic protein (MBP) gene and a Claudink gene were prepared, by transforming Zebrafish cells with genes respectively encoding an Mbp:EGFP fusion protein and a Claudink:EGFP fusion protein. Specifically, the NfsB virulence gene encodes a nitroreductase (NTR) enzyme. […] However, when metronidazole (MTZ) is added to cells, the cells convert MTZ into a cytotoxic material by using NTR, which induces apoptosis. Genetically engineered zebrafish, i.e., transformed zebrafish that express the NfsB virulence gene specifically in differentiated oligodendrocytes and Schwann cells were prepared by using promoters of mbp and claudink genes that specifically operate in differentiated myelin to express myelin-specific genes bound to myelin, and using the Gal4-UAS transactivator system. Next, it was confirmed that the NfsB virulence gene was myelin-specifically expressed in the transformed zebrafish.
As a result, an animal model of demyelination that is induced in the presence of MTZ was established. Hereinafter, this animal model is also referred to as zebrafish (Mbp (or claudink):gal4::UAS:nfsB (NTR, toxin)::UAS:gfp). After removing the added MTZ substrate from the culture medium, the transformed zebrafish were then cultured in a culture medium free of MTZ for 1 day, followed by a recovery period. This study, described in greater detail below, confirmed that natural remyelination occurred in the demyelinated central nervous system and peripheral nervous system and that ES drug has an effect of promoting remyelination. […]

[2] = system: Mauthner axons and myelin in the central nervous system; assay: Remyelination of central nervous system (Mauthner axons) in MTZ-demyelinated transformed zebrafish, g-ratio; type: in vivo, Zebrafish (Danio rerio); conditions: zebrafish ClaudinK line
Method: Transformed Zebrafish (Danio rerio) in which genes respectively encoding an Mbp:EGFP fusion protein and a Claudink:EGFP fusion protein that are specifically expressed in myelin and emit fluorescence by using promoters of a myelin basic protein (MBP) gene and a Claudink gene were prepared, by transforming Zebrafish cells with genes respectively encoding an Mbp:EGFP fusion protein and a Claudink:EGFP fusion protein. Specifically, the NfsB virulence gene encodes a nitroreductase (NTR) enzyme. […] However, when metronidazole (MTZ) is added to cells, the cells convert MTZ into a cytotoxic material by using NTR, which induces apoptosis. […]
FIG. 6 illustrates the results of GFP-originated fluorescence microscopy and red fluorescence microscopy with immunostaining by acetylated-tubulin that is expressed specific to axons, by using a confocal laser microscope on sections of Mauthner axons and myelin in the central nervous system of the zebrafish (ClaudinK:gal4::UAS:nfsB (NTR, toxin)::UAS:gfp) incubated under various conditions. […] The axon and fiber diameters were obtained by calculating the diameters from the intensities of GFP-originated fluorescence and red axonal fluorescence with the Image J program. […]

Structure (SMILES): CCNCC.O=S(=O)(O)c1cc(O)ccc1O [ethamsylate, diethyl ammonium 2,5-dihydroxybenzene sulfonic acid]
- expression level of PMP22 protein (PMP22; 10 μM ethamsylate, incubation for 0.5, 1, 12, 24 and 48 hours, vs 0 hour control, FIG. 1 panel B): decreased compared to the control group
- amount of PMP22 protein expressed (PMP22; 0.1, 1, 10, 100 μM ethamsylate in DMSO, about 24 hours, vs DMSO control, FIG. 1 panel A, n=4): decrease in the amount of PMP22 protein expressed
- ratio of myelinated axons to total axons ([1]; zebrafish Claudink line, 10 μM ES vs MTZ treated sample, FIGS. 4 and 5): significantly higher
- remyelination of PLL myelin (GFP and acetylated-tubulin fluorescence) ([1]; zebrafish Claudink:gal4::UAS:nfsB::UAS:gfp, 10 μM ES after MTZ, FIG. 4): promote remyelination
- myelin in the peripheral nervous system (GFP-originated green fluorescence) ([1]; zebrafish Mbp:gal4::UAS:nfsB::UAS:gfp, MTZ 4.5-6 dpf, washed, 10 μM ES 6-7 dpf (about 1 day), FIG. 3 panel D): completely remyelinated
- g-ratio (diameter ratio of axon to nerve fiber) ([2]; Mauthner axons, 10 μM ethamsylate vs MTZ treatment group, FIG. 8): remarkably reduced g-ratio
- regeneration or remyelination of demyelinated nerve cells in the central nervous system ([2]; incubated in presence of ethamsylate after MTZ, FIGS. 6 and 8): remyelinated with a significantly higher efficiency

Reference: US9782371B2, “Composition for promoting remyelination in nerve cells comprising 2,5-dihydroxybenzenesulfonic acid and use thereof” (Samsung Electronics Co., Ltd., priority 2015, dated 2017)
